# In ChEMBL document CHEMBL2439951, “Discovery of N-(benzo[1,2,3]triazol-1-yl)-N-(benzyl)acetamido)phenyl) carboxamides as severe acute respiratory syndrome coronavirus (SARS-CoV) 3CLpro inhibitors: identification of ML300 and noncovalent nanomolar inhibitors with an induced-fit binding” (Bioorg Med Chem Lett, 2013):
# Legend:
# [1] = target: Replicase polyprotein 1a (Severe acute respiratory syndrome-related coronavirus) (UniProt P0C6U8); test: Inhibition of SARS coronavirus 3CLpro at 100 uM
# Cytochrome P450 1A2 = target: T1, Cytochrome P450 1A2 (Homo sapiens, UniProt P05177); test: Inhibition of CYP1A2 (unknown origin); format: ADME
# T1 sequence (P05177 whole entry): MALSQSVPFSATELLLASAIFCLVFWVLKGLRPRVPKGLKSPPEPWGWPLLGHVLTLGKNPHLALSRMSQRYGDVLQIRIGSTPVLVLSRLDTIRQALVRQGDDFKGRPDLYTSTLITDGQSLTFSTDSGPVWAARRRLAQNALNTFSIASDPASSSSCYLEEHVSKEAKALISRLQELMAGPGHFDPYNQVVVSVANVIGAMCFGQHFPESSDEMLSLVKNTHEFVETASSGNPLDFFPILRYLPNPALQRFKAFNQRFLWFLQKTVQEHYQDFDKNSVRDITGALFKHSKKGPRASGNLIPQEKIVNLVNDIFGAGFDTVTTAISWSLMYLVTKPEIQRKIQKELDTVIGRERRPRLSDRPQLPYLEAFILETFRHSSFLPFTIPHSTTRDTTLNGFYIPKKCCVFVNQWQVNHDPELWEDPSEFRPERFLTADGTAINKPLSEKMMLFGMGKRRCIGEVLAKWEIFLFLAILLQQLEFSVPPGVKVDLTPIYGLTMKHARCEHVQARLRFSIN
# Cytochrome P450 2D6 = Cytochrome P450 2D6 (Homo sapiens, UniProt P10635); test: Inhibition of CYP2D6 (unknown origin); format: ADME
# Chain of Cytochrome P450 2D6 (P10635 whole entry): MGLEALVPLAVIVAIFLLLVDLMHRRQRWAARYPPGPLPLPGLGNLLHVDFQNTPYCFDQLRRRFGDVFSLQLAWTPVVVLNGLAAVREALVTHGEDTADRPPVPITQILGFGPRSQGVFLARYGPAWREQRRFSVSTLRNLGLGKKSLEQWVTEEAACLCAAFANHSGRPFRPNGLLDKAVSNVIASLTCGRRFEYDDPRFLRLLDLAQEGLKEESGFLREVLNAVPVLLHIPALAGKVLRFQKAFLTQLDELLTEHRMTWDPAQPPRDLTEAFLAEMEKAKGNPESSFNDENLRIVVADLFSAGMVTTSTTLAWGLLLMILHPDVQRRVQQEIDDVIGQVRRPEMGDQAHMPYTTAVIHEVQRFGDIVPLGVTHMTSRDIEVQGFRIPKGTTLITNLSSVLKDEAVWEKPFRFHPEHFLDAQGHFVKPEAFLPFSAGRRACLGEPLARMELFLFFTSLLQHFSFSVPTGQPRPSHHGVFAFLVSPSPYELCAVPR
# Cytochrome P450 2C9 = Cytochrome P450 2C9 (Homo sapiens, UniProt P11712); test: Inhibition of CYP2C9 (unknown origin); format: ADME
# Chain of Cytochrome P450 2C9 (P11712 whole entry): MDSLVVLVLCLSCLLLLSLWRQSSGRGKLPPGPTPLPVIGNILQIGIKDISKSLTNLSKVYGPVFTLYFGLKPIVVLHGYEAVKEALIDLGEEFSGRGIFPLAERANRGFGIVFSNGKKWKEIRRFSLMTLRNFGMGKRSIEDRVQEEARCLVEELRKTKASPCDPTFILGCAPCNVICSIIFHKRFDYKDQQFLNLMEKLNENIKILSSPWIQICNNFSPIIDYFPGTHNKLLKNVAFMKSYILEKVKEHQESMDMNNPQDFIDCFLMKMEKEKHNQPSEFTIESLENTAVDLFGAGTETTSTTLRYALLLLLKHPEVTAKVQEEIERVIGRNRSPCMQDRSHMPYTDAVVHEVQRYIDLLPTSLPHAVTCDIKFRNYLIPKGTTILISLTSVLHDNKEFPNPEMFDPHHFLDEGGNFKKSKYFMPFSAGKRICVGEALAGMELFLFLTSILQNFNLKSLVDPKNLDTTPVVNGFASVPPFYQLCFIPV
# Replicase polyprotein 1a = Replicase polyprotein 1a (Severe acute respiratory syndrome-related coronavirus, UniProt P0C6U8); test: Inhibition of SARS coronavirus 3CLpro
# [2] = Inhibition of SARS coronavirus PLpro; design: species or system Severe acute respiratory syndrome-related coronavirus
compound,measurement,setting,value
O=C(Nc1ccc(N(Cc2ccsc2)C(=O)Cn2nnc3ccccc32)cc1)c1ccccc1,inhibition,[1],18%
O=C(Nc1ccc(N(Cc2ccsc2)C(=O)Cn2nnc3ccccc32)cc1)C1CC1,INH,Cytochrome P450 1A2,7.7 µM
same,INH,Cytochrome P450 2D6,8.4 µM
same,INH,Cytochrome P450 2C9,7.2 µM
CC(C)COC(=O)Nc1ccc(N(C(=O)Cn2nnc3ccccc32)C(C(=O)NC(C)(C)C)c2ccsc2)cc1 (configuration not stated),IC50,Replicase polyprotein 1a,Not Active
CCC(C)(C)NC(=O)[C@@H](c1ccn(C)c1)N(C(=O)Cn1nnc2ccccc21)c1ccc(NC(C)=O)cc1,IC50,Replicase polyprotein 1a; read-out: IC50,6200 nM
same,IC50,[2],> 60000 nM
COc1ncccc1-c1ccc(N(Cc2ccsc2)C(=O)Cn2nnc3ccccc32)cc1,IC50,Replicase polyprotein 1a; read-out: IC50,700 nM
O=C(Cn1nnc2ccccc21)N(Cc1ccsc1)c1ccc(-c2ccncc2)cc1,IC50,Replicase polyprotein 1a; read-out: IC50,2000 nM
CC(C)(C)NC(=O)[C@@H](c1cccnc1)N(C(=O)c1ccco1)c1ccc(C(C)(C)C)cc1,INH,Cytochrome P450 1A2,> 30 µM
same,INH,Cytochrome P450 2D6,> 30 µM
same,INH,Cytochrome P450 2C9,9.1 µM
